Article PMC8151329, “Modulation of γ-Secretase Activity by a Carborane-Based Flurbiprofen Analogue” (Molecules, 2021)
Like-named read-outs stand apart in the source and are kept apart here.

Experiments:
[1] = target: T1, human COX-2 (Homo sapiens, UniProt P35354); assay: COX Fluorescent Inhibitor Screening Assay Kit, COX-2; assay type: biochemical
T1 construct: purchased Cayman Chemical Company 700100
T1 sequence (P35354 18-604): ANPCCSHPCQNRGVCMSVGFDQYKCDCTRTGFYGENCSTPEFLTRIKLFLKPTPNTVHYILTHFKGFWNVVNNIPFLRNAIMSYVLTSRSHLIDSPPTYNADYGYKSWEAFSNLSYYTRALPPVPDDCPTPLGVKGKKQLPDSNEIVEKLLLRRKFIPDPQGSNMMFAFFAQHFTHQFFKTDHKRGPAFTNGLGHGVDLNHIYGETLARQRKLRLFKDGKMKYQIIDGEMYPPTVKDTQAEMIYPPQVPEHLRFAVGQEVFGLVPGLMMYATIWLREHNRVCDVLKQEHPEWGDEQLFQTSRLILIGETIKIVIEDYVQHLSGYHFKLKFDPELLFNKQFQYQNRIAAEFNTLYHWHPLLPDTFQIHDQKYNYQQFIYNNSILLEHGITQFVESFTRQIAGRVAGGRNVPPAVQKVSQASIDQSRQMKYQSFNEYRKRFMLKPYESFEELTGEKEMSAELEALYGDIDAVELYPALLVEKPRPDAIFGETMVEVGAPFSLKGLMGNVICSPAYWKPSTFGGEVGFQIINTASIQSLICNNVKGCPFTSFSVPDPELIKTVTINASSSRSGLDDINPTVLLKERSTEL

[2] = test system: U251; assay: MTT cytotoxicity test U251; assay type: cell-based, human; settings: U251, 48 h, up to 100 µM, mean ± SD
Description: (§1) The used human tumour (i.e., melanoma A375, colon cancer HCT116 and HT29, and glioblastoma LN229 and U251) and rodent tumour (i.e., mouse melanoma B16 and B16–F10; rat glioma C6) cell lines as well as murine transformed non-malignant fibroblast cell line NIH/3T3 differed in their rates of COX-1 and COX-2 expression.
(§2) Cytotoxicity was determined by conducting MTT and CV assays using cell viability as an indicator [67]. All measurements were carried out in triplicates.

[3] = test system: NIH/3T3; assay: MTT cytotoxicity test NIH/3T3; assay type: cell-based, mouse; settings: NIH/3T3, 48 h, up to 100 µM, mean ± SD
Description: as §1, §2

[4] = target: T2, ovine COX-1 (Ovis aries, UniProt P05979); assay: COX Fluorescent Inhibitor Screening Assay Kit, COX-1; assay type: biochemical
T2 construct: purchased Cayman Chemical Company 700100
T2 sequence (P05979 25-600): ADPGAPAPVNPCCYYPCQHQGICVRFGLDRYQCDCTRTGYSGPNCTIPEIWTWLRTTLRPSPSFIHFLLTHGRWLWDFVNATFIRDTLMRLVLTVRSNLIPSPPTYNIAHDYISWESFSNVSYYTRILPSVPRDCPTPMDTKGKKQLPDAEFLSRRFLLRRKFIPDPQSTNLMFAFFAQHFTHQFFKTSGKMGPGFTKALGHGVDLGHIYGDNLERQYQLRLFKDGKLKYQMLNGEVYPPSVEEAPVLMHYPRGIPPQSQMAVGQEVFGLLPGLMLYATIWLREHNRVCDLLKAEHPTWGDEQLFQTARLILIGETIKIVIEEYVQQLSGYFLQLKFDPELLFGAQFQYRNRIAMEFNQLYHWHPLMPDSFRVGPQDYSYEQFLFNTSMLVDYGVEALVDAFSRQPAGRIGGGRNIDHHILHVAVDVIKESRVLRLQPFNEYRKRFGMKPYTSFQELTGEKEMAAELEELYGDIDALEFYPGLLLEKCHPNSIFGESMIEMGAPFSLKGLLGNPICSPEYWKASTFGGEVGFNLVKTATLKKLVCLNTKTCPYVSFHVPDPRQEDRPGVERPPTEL
Description: In this work, 100 µM arachidonic acid was applied according to the manufacturer’s instructions for the “COX Fluorescent Inhibitor Screening Assay Kit”.

[5] = test system: A375; assay: MTT cytotoxicity test A375; assay type: cell-based, human; settings: A375, 48 h, up to 100 µM, mean ± SD
Description: as §1, §2

[6] = test system: C6; assay: MTT cytotoxicity test C6; assay type: cell-based, rat; settings: C6, 48 h, up to 100 µM, mean ± SD
Description: as §1, §2

[7] = target: T3, γ-secretase (Homo sapiens, UniProt P49768); assay type: cell-based; settings: HEK/sw cells
T3 construct: endogenous in cells; host or cells: HEK293 cells stably overexpressing Swedish-mutant APP (HEK/sw)
Description: The γ-secretase modulator (GSM) activity of compound 5 was tested on human embryonic kidney (HEK) 293 cells stably overexpressing ”Swedish mutant” APP (HEK/sw), a well-established cell culture model to assess GSM activity. The effect of compound 5 on Aβ production was analysed in comparison to flurbiprofen over a relevant and cell tolerable concentration range (Figure 1).
Nearly confluent (80%) HEK/sw cells were treated with the indicated concentrations of compound 5 or flurbiprofen ((±)-2-fluoro-α-methyl-4-biphenylacetic acid; F8514, Sigma–Aldrich, St. Louis, MO, USA) as described before. Cells treated with DMSO or 1 µM GSM-1 were used as negative and positive controls, respectively. After overnight treatment, the conditioned medium was collected, cleared by centrifugation (10 min, 4 °C, 16,000× g), and the levels of secreted Aβ38, Aβ40, and Aβ42 were analysed using an established Aβ species-specific sandwich immunoassay purchase from Meso Scale Discovery (MSD, Rockville, MD, USA).

[8] = logD7.4 by HPLC method; assay type: physicochemical; settings: pH 7.4
Text: The measured variances in logD7.4 measurements between the two compounds and the two methods lie in the typical range of the method, and both compounds can be seen as equally hydrophobic. This confirms that the replacement of a phenyl ring with a carborane moiety indeed increased the hydrophobicity and could therefore result in an increased BBB penetration of compound 5 compared to flurbiprofen.
In both cases, the eluent consisted of methanol and a 0.01 M phosphate buffer (pH = 7.4); the applied gradient was 0 min at 70% methanol, 10 min at 100% methanol, 20 min at 100% methanol at a flow rate of 0.6 mL/min.

[9] = test system: B16–F10; assay: MTT cytotoxicity test B16–F10; assay type: cell-based, mouse; settings: B16–F10, 48 h, up to 100 µM, mean ± SD
Description: as §1, §2

[10] = test system: LN229; assay: MTT cytotoxicity test LN229; assay type: cell-based, human; settings: LN229, 48 h, up to 100 µM, mean ± SD
Description: as §1, §2

[11] = test system: HT29; assay: MTT cytotoxicity test HT29; assay type: cell-based, human; settings: HT29, 48 h, up to 100 µM, mean ± SD
Description: as §1, §2

[12] = test system: HCT116; assay: MTT cytotoxicity test HCT116; assay type: cell-based, human; settings: HCT116, 48 h, up to 100 µM, mean ± SD
Description: as §1, §2

[13] = test system: B16; assay: MTT cytotoxicity test B16; assay type: cell-based, mouse; settings: B16, 48 h, up to 100 µM, mean ± SD
Description: as §1, §2

[14] = set-up: method as in PMID 25513709; settings: shake flask; cited from earlier work
[15] = enzyme-based assay, result in words

Compound | inhibitory activity on COX-2 [1, 15] | IC50 ([1]; human COX-2, fluorescence kit, 100 µM arachidonic acid, read-out: IC50 inhibition of COX-2) [µM] | IC50 [2] [µM] | IC50 [3] [µM] | inhibitory activity on COX-1 [4, 15] | IC50 ([4]; ovine COX-1, fluorescence kit, 100 µM arachidonic acid, read-out: IC50 inhibition of COX-1) [µM] | IC50 [5] [µM] | IC50 [6] [µM] | sum of all measured Aβ species (Aβ38, Aβ40 and Aβ42) vs DMSO control ([7]; 150 µM) | effect on Aβ42:Aβ40 ratio ([7]; extracellular Aβ) | ratio of short Aβ38 to longer Aβ42 (γ-secretase processivity) ([7]; overnight treatment) | effect on Aβ42 (ratio of total Aβ) ([7]; overnight treatment, conditioned medium) | logD7.4 ([8]; HPLC method 1: Chromolith Speed ROD RP-18E 50) | logD7.4 ([8]; HPLC method 2 (standard conditions): Asahipak ODP-50 4B 4.6 × 50) | IC50 [9] [µM] | IC50 [10] [µM] | IC50 [11] [µM] | IC50 [12] [µM] | IC50 [13] [µM] | logD7.4 [14]
2-[4-(1,7-Dicarba-closo-dodecaboran-9-yl(12))phenyl]propionic acid [Compound 5] | No inhibitory activity | > 100 | 77.5 ± 7.2 | 90 ± 10 | No inhibitory activity | > 100 | 96 ± 5.9 | 92.8 ± 4.8 | did not decrease significantly | lowering | increased | clear dose-dependent decrease | 2.00 | 1.86 | 74.7 ± 0.9 | 95 ± 7.1 | > 100 | > 100 | 79 ± 2.4 | –
CC(C(=O)O)c1ccc(-c2ccccc2)c(F)c1 (racemic) [Flurbiprofen, (±)-2-fluoro-α-methyl-4-biphenylacetic acid] | – | – | – | – | – | – | – | – | – | – | – | – | – | – | – | – | – | – | – | 0.91
